Source: patent US20210332161A1, “CHLORINATED DERIVATIVE OF HYALURONIC ACID, METHOD OF PREPARATION THEREOF, A COMPOSITION CONTAINING THE DERIVATIVE, AND USE THEREOF” (CONTIPRO A.S., priority 2018, published 2021)
Several values for one entry are separate records, joined by “and”; a condition that tells them apart may be missing. Equal values may be shown once.

Key:
[1] = Stability of hyaluronan chloramide on standing (DS by NMR); type: physicochemical; conditions: initial DS 85%
Description: 5 g of hyaluronan (Mw 2200 kg·mol^−1) were dissolved in 250 ml of distilled water. Subsequently, 2 ml of acetic acid were added and the solution was stirred at the temperature of 20° C. for 15 minutes. Then, a sodium salt of dichloroisocyanuric acid in the amount of 3.2 g (1 eq.) was added. Then, the mixture was stirred at a temperature of 20° C. for 48 hours. Subsequently, the mixture was precipitated by 2.5 litres of isopropanol and filtered. The solid portion was washed with 2 litres of isopropanol, whereupon it was vacuum dried for 20 hours. DS 85% (determined from NMR). The NMR solution (7 mg of the product in 0.7 ml of D2O) was measured after another 5 days of standing at 20° C. The DS value was determined as 84%. The solid portion in the form of powder was let stand at 20° C. for 100 days and after that the sample was dissolved in D2O. The DS value was determined as 84%.

CVB3 (Nancy) = experiment: Testing of antiviral activity based on the plaque reduction; type: cell-based; conditions: for PFU on PD, Average: average of 5 repeats; for PFU on PD, Average / PFU on PD: VERO cells; for PFU on PD: single Petri dishes (5 repeats), 5 hours incubation, listed as HA chloramide
Description: (§1) Number of repeats −5, tested substance prepared according to Example 19, virus subject to testing: CVB3 (Nancy) in the concentration of 3×10E7, 5 PFU/ml, VERO cellular substrate
(§2) After having been subject to 10^7-fold dilution in the volume of 1.5 ml, the virus was adsorbed on the cell substrate in Petri dishes for 30 minutes. The negative control contained PBS without viruses. Afterwards, the virus was removed by suction and the cells were interlayered by the tested substance (or by HA and PBS contained in the negative control materials), incubation at 37° C. and in the presence of 5% of CO2, for 5 hours. The cells were washed with PBS and covered by a layer of a medium containing EMEM supplemented with 5% of inactivated FBS and 0.75% of agarose. The incubation in an environment containing 5% of CO2 at 37° C. for 4 days. Subsequently, the medium was removed, the cells were stained by a crystal violet dye and the counts of plaques were determined. During the test, the antiviral activity was proportional to the reduction of the number of plaques.

VERO cellular substrate = experiment: Plaque test groups without virus (examination of the cells / of toxicity); type: cell-based, Cercopithecus aethiops; conditions: 1% in PBS, no virus
Description: as §1, §2

[2] = single Petri dishes (5 repeats)

Substance | DS value of the NMR solution after standing ([1]; 7 mg of product in 0.7 ml D2O, another 5 days of standing at 20° C.) [%] | DS value of the solid powder after standing ([1]; powder let stand at 20° C. for 100 days, then dissolved in D2O) [%] | PFU on PD, Average (CVB3 (Nancy); 0.1% in PBS) [PFU] | PFU on PD (CVB3 (Nancy); 0.1% in PBS) | PFU on PD, Average (CVB3 (Nancy); 0.5% in PBS) [PFU] | PFU on PD (CVB3 (Nancy); 0.5% in PBS) | PFU on PD, Average (CVB3 (Nancy); 1% in PBS) [PFU] | inhibition of the viral growth compared to the standard with HA (CVB3 (Nancy); Tests 1, 2 and 3 (0.1, 0.5, 1% in PBS), more efficient with increasing concentration) | PFU on PD, Average, Examination of the cells with HA (VERO cellular substrate; average of 5 repeats) [PFU] | PFU on PD, Average, Examination of toxicity (VERO cellular substrate; average of 5 repeats) [PFU] | PFU on PD, Examination of the cells with HA (VERO cellular substrate; [2]) [PFU] | PFU on PD, Examination of toxicity (VERO cellular substrate; [2]) [PFU]
Hyaluronan Chloramide [Example 16] | 84 | 84 |  |  |  |  |  |  |  |  |  | 
Hyaluronan Chloramide [Example 19] |  |  | 7.8 | 5 PFU and 7 PFU and 10 PFU and 8 PFU and 9 PFU | 7.2 | 8 PFU and 5 PFU and 7 PFU | 2.6 | inhibition of the viral growth | 0 | 0 | 0 | 0
Hyaluronic acid [HA, reference compound] |  |  |  |  |  |  | 10.4 |  |  |  |  | 
